In patent US6846678B2, “Gamma sterilized buffer solutions for pH measurement” (Terumo Cardiovascular Systems, Co.-Tustin, priority 2002, dated 2005):

Legend:
[1] = Effect of gamma sterilization (25-35 kGy) on preservatives in buffer; format: physicochemical; details: for Result post-gamma sterilization: gamma sterilization 25-35 kGy
Procedure: In a preferred embodiment, sterilization is performed by use of a gamma irradiation system having a Cobalt-60 source. The system used in the examples and data presented below is a dual source (i.e. two source racks), affording continuous irradiation and wet storage. The sterilization range was 25-35 kGy, set by adjusting the time of exposure to a constant radiation source. All sterilization dose ranges were confirmed by dosimeters.
Cf. Table 3. We examined a variety of preservatives for use in this buffer.

six different organisms = details: over eight weeks, unsterile buffer
Description: We tested the Buffers according to USP protocol for “Antimicrobial Preservatives Effectiveness” (United States Pharmacopeia, Volume XXIV, Microbiological Tests, Section (51) Antimicrobial Effectiveness Testing, pp. 1809-11, Official Jan. 1, 2000).

Molecule	Result post-gamma sterilization [1]	effect on the final buffer formulation with regard to pH level, stability, and cosmetic factors ([1]; gamma sterilization cycle)	counts for five of the organisms (six different organisms)	log reduction for the sixth organism (six different organisms)
Benzalkonium chloride	Precipitated			
COC(=O)c1ccc(O)cc1 [Methyl paraben]	Acidified			
CC(C)(C)CC(C)(C)c1ccc(OCCOCC[N+](C)(C)Cc2ccccc2)cc1 [Benzethonium chloride]	Acceptable	minimal effect	no counts	> 3 log
N=C(NCCCCCCNC(=N)NC(=N)Nc1ccc(Cl)cc1)NC(=N)Nc1ccc(Cl)cc1 [Chlorohexidine]	Precipitated			
CCCOC(=O)c1ccc(O)cc1 [Propyl paraben]	Precipitated			
O=C1C(N(CO)C(=O)NCO)N(CO)C(=O)N1CO (stereo not shown) [Germall II]	Strong acidification, evolved CO2			
Cl/C=C\C[N+]12CN3CN(CN(C3)C1)C2.[Cl-] [Dowicil 200]	Acidified, drifted			
